Results as given in US20240076440A1, “PROCESS OF FORMING A CONJUGATED POLYMER” (Sumitomo Chemical Co., ltd., priority 2019, published 2024).

Assay: Solubilities of Monomers 1 and 2 in toluene, MeOH and water
Format: physicochemical

Solubility in Toluene (Conc 0.1 mg/ml) | Solubility in Toluene (Conc 1 mg/ml) | Solubility in Water (Conc 1 mg/ml) | Solubility in MeOH (Conc 50 mg/ml) | Solubility in Water (Conc 50 mg/ml) | Solubility in MeOH (Conc 0.1 mg/ml) | Solubility in MeOH (Conc 1 mg/ml) | Solubility in MeOH (Conc 75 mg/ml) | Solubility in Toluene (Conc 75 mg/ml) | Solubility in Toluene (Conc 1 g/ml) | Solubility in Toluene (Conc 2 g/ml) | Compound
Insoluble | Insoluble | Soluble | Soluble | Insoluble |  |  |  |  |  |  | C[N+](C)(C)CCC1(CC[N+](C)(C)C)c2cc(Br)ccc2-c2ccc(Br)cc21 [Monomer 2]
Soluble | Soluble | Insoluble | Soluble |  | Soluble | Soluble | Not Soluble | soluble | Soluble | Soluble | CCCCCCCCC1(CCCCCCCC)c2cc(B3OCCO3)ccc2-c2ccc(B3OCCO3)cc21 [Monomer 1]
